Legend:
plasma CRP = assay: Plasma CRP lowering effect, WHHL rat, 28 days oral with mixed food; type: in vivo; conditions: male WHHL rat, mean ± SE, N = 11
Experimental: To 2 month-old male WHHL […] (11 per group) was orally administered with a mixed food a vehicle or Test compound 1 at a dose of 100 and 200 mg/kg for 28 days. Before administration and after 28 days administration, plasma CRP level was determined using CRPα Test Wako (Wako Pure Chemical Industries, Ltd.) with Hitachi, Ltd. Autoanalyzer 7070 (Table 1).

CRP = conditions: literature reports (Ballantyne 2003; Sager 2003); cited from earlier work

Compound | Plasma CRP level, after 28 days administration (plasma CRP; 100 mg/kg orally with mixed food for 28 days) | Plasma CRP level, after 28 days administration (plasma CRP; 200 mg/kg orally with mixed food for 28 days, *P < 0.025 vs. control) | Plasma CRP level, value of before administration (plasma CRP; baseline of the 100 mg/kg group) | Plasma CRP level, value of before administration (plasma CRP; baseline of the 200 mg/kg group) | CRP lowering activity (CRP)
COc1cccc([C@H]2O[C@H](CC(=O)N3CCC(CC(=O)O)CC3)C(=O)N(CC(C)(C)COC(C)=O)c3ccc(Cl)cc32)c1OC [Test compound 1, N-[[(3R,5S)-1-(3-acetoxy-2,2-dimethylpropyl)-7-chloro-5-(2,3-dimethoxyphenyl)-2-oxo-1,2,3,5-tetrahydro-4,1-benzoxazepin-3-yl]acetyl]piperidine-4-acetic acid] | 3.2 ± 0.6 mg/dL | 2.1 ± 0.2* mg/dL | 4.4 ± 0.4 mg/dL | 4.4 ± 0.6 mg/dL | –
O=C1[C@H](CC[C@H](O)c2ccc(F)cc2)[C@@H](c2ccc(O)cc2)N1c1ccc(F)cc1 [ezetimibe] | – | – | – | – | no CRP lowering activity
